The source of these data is patent US7763286B2, “Composition comprising an extract of Tiarella polyphylla and tiarellic acid isolated therefrom having antiinflammatory, antiallergic and antiasthmatic activity” (Korea Research Institute of Bioscience and Biotechnology, priority 2005, dated 2010).

One data set has as its system LTC4 release. Briefly: LTC4 release from SCF-stimulated bone marrow-derived mast cells (BMMC), enzyme immunoassay. The format is cell-based, Balb/c mice. The following applies: Mus musculus, SCF 100 ng/ml stimulation, read-out: LTC4 release inhibition (IC50). Here is the method:
BMMC were obtained from male Balb/c mice and cultured for up to 4 weeks in 50% enriched medium (RPMI containing 2 mM L-glutamine, 25 mM HEPES buffer, 2 mg/ml sodium bicarbonate, 100 units/ml penicillin G, 100 μg/ml streptomycin sulfate, 0.25 μg/ml amphotericin B) supplemented with 10% fetal bovine serum with IL-3 (Sigma I4144, 2 ng/ml) (Murakami M et al., J. Bio. Chem., 39, pp 22653-22656, 1995). 3 weeks after the culture, more than 98% of BMMC was found in the cells as assessed by staining method with toluidine blue.
BMMC were suspended in the enriched medium at the cell density of 1×10^6 cells/ml, and were then incubated in a humidified 5% CO2 incubator with or without sample in DMSO (final DMSO concentration was less than 0.5%) for 30 min at 37° C. After the stimulation with stem cell factor (SCF, Sigma S9915, 100 ng/ml) for 20 min, the LTC4 release in supernatants was measured by an enzyme immunoassay kit (Cayman Chemical, Ann Arbor, Mich., U.S.A.) according to the manufacturer's instructions. All the experiments were carried out in triplicate and the inhibition of LTC4 release was determined by calculating % reduction of LTC4 release from the control (Lee S H et al., Biol. Pharm. Bull., 27, pp 786-788, 2004). […]

Data set [1] deals with OVA-induced asthmatic mice. Briefly: Airway hyperresponsiveness (AHR), whole-body plethysmography, OVA-induced asthmatic mice. The settings on record: for Penh value: tiarellic acid and zileuton 30 mg/ml, po; for Penh value / AHR compared with OVA-treated group: OVA-challenged mice, in words. The format is in vivo. Here is the method: Groups of mice (n=5-6) were studied; they received the following treatment: (1) sham-sensitization plus challenge with phosphate-buffered saline (PBS; ipNeb); (2) sensitization plus challenge with OVA (ovalbumin: Sigma A5503; Sigma, St. Louis, Mo.) (ipNeb); (3) sensitization with OVA (ip) plus challenge with OVA (Neb) and samples ([…] or zileuton, po). Briefly, mice were sensitized with intraperitoneal injection of 20 μg OVA, which was emulsified with 2 mg of aluminum hydroxide in 100 μl of PBS buffer (pH 7.4) on days 0 and 11. The mice were challenged through the airways with OVA (1% in PBS) for 20 min using an ultrasonic nubuilizer (NE-U12; Omron Corp., Tokyo, Japan) on days 19, 20, 21 and 25 after the initial sensitization. The mice were sacrificed 48 hours after the last challenge (day 27) to determine the suppressive effect of extract of T. polyphylla and […] on the airways of allergic asthma. 24 hours after the final aerosol challenge AHR was measured by using a whole-body plethysmography (OCP3000; Allmedicus, Korea)(Hamelmann E et al., Am J Respir Crit. Care Med., 156, pp 766-775, 1997). […] Bronchoconstriction was recorded for additional 5 mins at each concentration. The highest Penh value of each sample was obtained during each methacholine challenge, and expressed as a percentage of a basal Penh value in response to control (PBS) challenge.

Another data set has as its system OVA-specific IgE. Briefly: OVA-specific IgE in plasma of OVA-induced asthmatic mice (ELISA). The format is in vivo. The settings on record: Mus musculus, 48 hours after last challenge, 30 mg/ml, vs OVA-control. Here is the method: Groups of mice (n=5-6) were studied; they received the following treatment: (1) sham-sensitization plus challenge with phosphate-buffered saline (PBS; ipNeb); (2) sensitization plus challenge with OVA (ovalbumin: Sigma A5503; Sigma, St. Louis, Mo.) (ipNeb); (3) sensitization with OVA (ip) plus challenge with OVA (Neb) and samples (tiarellic acid or zileuton, po). Briefly, mice were sensitized with intraperitoneal injection of 20 μg OVA, which was emulsified with 2 mg of aluminum hydroxide in 100 μl of PBS buffer (pH 7.4) on days 0 and 11. The mice were challenged through the airways with OVA (1% in PBS) for 20 min using an ultrasonic nubuilizer (NE-U12; Omron Corp., Tokyo, Japan) on days 19, 20, 21 and 25 after the initial sensitization. […]
48 hours after the last challenge, the mice were sacrificed with an overdose of pentobarbital (Sigma P3761), and a tracheotomy was performed. […] The amount of IL-4, IL-5 and IL-13 in BALF was measured by a specific mouse ELISA kit (R&D Systems; Minneapolis, Minn.) according to the manufacturer's instructions. […]
Plasma was obtained by cardiac puncture after the tracheotomy. […] IgE levels in each sample were measured the optical density readings at 450 nm, and OVA-specific IgE concentrations were calculated from a standard curve, which was generated in case recombinant IgE (5-2,000 ng/ml) was used.

The subject of another data set is IL-4. Put plainly: IL-4 level in BALF of OVA-induced asthmatic mice (ELISA). It counts as in vivo. The settings on record: 30 mg/ml; for IL-4: 48 hours after last challenge; for inhibition at 30000 µg/mL: Mus musculus, vs OVA-control. The method, then: (§1) Groups of mice (n=5-6) were studied; they received the following treatment: (1) sham-sensitization plus challenge with phosphate-buffered saline (PBS; ipNeb); (2) sensitization plus challenge with OVA (ovalbumin: Sigma A5503; Sigma, St. Louis, Mo.) (ipNeb); (3) sensitization with OVA (ip) plus challenge with OVA (Neb) and samples (tiarellic acid or zileuton, po). Briefly, mice were sensitized with intraperitoneal injection of 20 μg OVA, which was emulsified with 2 mg of aluminum hydroxide in 100 μl of PBS buffer (pH 7.4) on days 0 and 11. The mice were challenged through the airways with OVA (1% in PBS) for 20 min using an ultrasonic nubuilizer (NE-U12; Omron Corp., Tokyo, Japan) on days 19, 20, 21 and 25 after the initial sensitization. The mice were sacrificed 48 hours after the last challenge (day 27) to determine the suppressive effect of extract of T. polyphylla and tiarellic acid on the airways of allergic asthma.
(§2) 48 hours after the last challenge, the mice were sacrificed with an overdose of pentobarbital (Sigma P3761), and a tracheotomy was performed. After ice-cold PBS (0.5 ml) was instilled into the lungs, bronchoalveolar lavage fluid (BALF) was obtained by aspiration three times (total 1.5 ml) via tracheal cannulation. BALF was centrifuged and supernatants were collected and stored at −70° C. before use. The amount of IL-4, IL-5 and IL-13 in BALF was measured by a specific mouse ELISA kit (R&D Systems; Minneapolis, Minn.) according to the manufacturer's instructions. The detection limit of the assays was 250 pg/ml.
(§3) To determine the effect of extract of T. polyphylla and tiarellic acid on the cytokine release in the OVA-induced asthmatic mice, 48 hours after the last challenge, the levels of cytokines (IL-4, IL-5 and IL-13) in BALF were measured by using ELISA method.

The next data set deals with IL-5. Briefly: IL-5 level in BALF of OVA-induced asthmatic mice (ELISA). The settings on record: 30 mg/ml; for IL-5: 48 hours after last challenge; for inhibition at 30000 µg/mL: Mus musculus, vs OVA-control. The format is in vivo. Here is the method:
as §1, §2, §3

Another data set has as its system IL-13. Briefly: IL-13 level in BALF of OVA-induced asthmatic mice (ELISA). The settings on record: 30 mg/ml; for IL-13: 48 hours after last challenge; for inhibition at 30000 µg/mL: Mus musculus, vs OVA-control. It counts as in vivo. The method, then:
as §1, §2, §3

The test system of a further data set is OVA-induced mice. Put plainly: OVA-induced inflammation in lung tissue (H&E histology, inflammation score). It counts as in vivo. The method, then: Groups of mice (n=5-6) were studied; they received the following treatment: (1) sham-sensitization plus challenge with phosphate-buffered saline (PBS; ipNeb); (2) sensitization plus challenge with OVA (ovalbumin: Sigma A5503; Sigma, St. Louis, Mo.) (ipNeb); (3) sensitization with OVA (ip) plus challenge with OVA (Neb) and samples (tiarellic acid or zileuton, po). Briefly, mice were sensitized with intraperitoneal injection of 20 μg OVA, which was emulsified with 2 mg of aluminum hydroxide in 100 μl of PBS buffer (pH 7.4) on days 0 and 11. […]
The lung tissue was fixed for 24 hours on 10% neutral-buffered formalin. […] The degree of cell infiltration in the airway was scored in a double-blind test performed by two independent investigators (Myou S et al., J. Exp. Med., 198, pp 1573-1582, 2003). The peri-bronchiole and peri-vascular inflammation was evaluated by specific standard, i.e., scoring of 0-3, 0, no cells; 1, a few cells; 2, a ring of cells 1 to 5 cell-layer deep; 3, a thick ring of cells more than 5 cell-layer deep. To evaluate the suppressive effect of T. polyphylla extract and tiarellic acid on the leukocyte infiltration, the degree of inflammation was scored by quantitative analysis in lung tissues 48 hours after the last challenge (See FIG. 2).

In another data set the test system is ICR rat. Briefly: Carageenan-induced rat-paw edema. It counts as in vivo. The following applies: for The thickness ratio of ankle (%) / inhibition at 50 mg/kg: 50 mg/kg; for inhibition at 50 mg/kg: Rattus norvegicus, paw edema. Here is the method:
The inhibiting activity of the extract of T. polyphylla and […] prepared from the above Examples on the edema formation in ICR rat was determined as follows. The mice were divided into three groups consisting of 6 rats for each group, i.e., T1 treated with only solvent as a negative control group, T2 treated with 50 mg/kg of the extract of T. polyphylla, T3 treated with 50 mg/kg of aspirin respectively. 1 hour after the treatment, 1% […] solution was injected into inner rat ankle to induce edema and the thickness of ankle was measured by Vernier's caliper to determine the degree of the edema. The determined thickness was calculated by following Math Fig. 1. The thickness ratio of ankle(%)=[(maximum thickness of rat paw edema)-(the thickness of pre-treated rat paw edema)/(the thickness of pre-treated rat paw edema)]×100 MathFigure 1

Another data set has as its system HL-60 cells. The settings on record: human, 4 h.

Like-named read-outs stand apart in the source and are kept apart here.

Experimental for HL-60 cells: Promyelotic HL-60 cells (HL-18103, 5×10^5 cells/ml) were seeded on 96-well plates under NGF-free condition. […] 4 hours later, MTT was removed and 100 μl of DMSO was dropped into each well to dissolve crystals. UV absorbance was measured by microplate reader (BIO-RAD, U.S.A.) at 570 nm to calculate the cell viability.

`C=C(C)[C@@H]1CC[C@]2(C)CC[C@]3(C(=O)O)C(CCC4[C@@]5(C)CC[C@H](O)[C@@](C)(CO)C5CC[C@]43C)C12` (some centres unmarked) [Tiarellic acid, tiarellic acid]: the IC50 with LTC4 release is 2490 nM. The Penh value in data set [1] (Metacholine 0 mg/ml) is on record as 0.46 ± 0.08; in data set [1] (Metacholine 5 mg/ml), 0.96 ± 0.45; in data set [1] (Metacholine 10 mg/ml), 1.54 ± 0.74; in [1] (Metacholine 20 mg/ml) it was 2.15 ± 0.52. In addition, in [1], the “Penh value / AHR compared with OVA-treated group” value is listed as “significantly reduced”. Further, the inhibition at 30000 µg/mL in the data set on OVA-specific IgE is 48.8%; in the data set on IL-4, 90.5 ± 4%; in the data set on IL-5 it was 54.6 ± 23%; in the data set with IL-13, 43.7 ± 28.2%. Moreover, the “IL-4” value in the data set on IL-4 came to 33.8 ± 14.3 pg/mL. The “IL-5” value in the data set on IL-5 amounted to 81.9 ± 41.4 pg/mL. Besides, in the data set with IL-13, the “IL-13” value is 81.7 ± 40.9 pg/mL. Besides, the “infiltration of eosinophil-rich leukocytes” value in the data set with OVA-induced mice (H&E staining of lung tissues, compared with OVA-treated mice) is on record as “significantly attenuated”. Also, the “suppressive effect on the inflammation in the lung tissues” value in the data set with OVA-induced mice (OVA-induced mice, 48 hours after last challenge) is “most potent suppressive effect”. Also, the “inhibition effect on rat paw edema” value with ICR rat (in words) is “potent inhibition effect”. The “Cell viability (%)” value is recorded as 100% with HL-60 cells (50 μM) and 102% in the data set on HL-60 cells (100 μM).

As for `CC(=O)Oc1ccccc1C(=O)O` [aspirin], the “The thickness ratio of ankle (%)” value is 139.3 ± 40.6% in the data set on ICR rat (1 hr); 170.4 ± 34.5% in the data set with ICR rat (2 hr); 180.6 ± 28.6% with ICR rat (3 hr); 196.9 ± 15.4% in the data set with ICR rat (4 hr); 198.5 ± 12.6% in the data set with ICR rat (5 hr). The inhibition at 50 mg/kg in the data set on ICR rat (1 hr) is -16.8 ± 34%; in the data set on ICR rat (2 hr), -7.8 ± 21.8%; with ICR rat (3 hr), 7.3 ± 14.7%; in the data set with ICR rat (4 hr), 4.3 ± 7.5%; in the data set on ICR rat (5 hr), 1.5 ± 6.3%.

Turning to `CC(c1cc2ccccc2s1)N(O)C(N)=O` (centres unmarked) [zileuton], in the data set on LTC4 release, the IC50 turned out to be 110 nM. In addition, the Penh value in data set [1] (Metacholine 0 mg/ml) worked out at 0.55 ± 0.14; in data set [1] (Metacholine 5 mg/ml), 1.17 ± 0.59; in data set [1] (Metacholine 10 mg/ml), 1.97 ± 0.83; in [1] (Metacholine 20 mg/ml), 2.49 ± 0.90. For the same compound, the “Penh value / AHR compared with OVA-treated group” value in data set [1] is recorded as “showed a decrease of AHR but less than tiarellic acid”. For the same compound, the inhibition at 30000 µg/mL with OVA-specific IgE is 45.8%; in the data set on IL-4, 18.7%; in the data set with IL-5 it was 12.5%; in the data set on IL-13, 10.3%. Moreover, the “IL-4” value in the data set with IL-4 amounted to 289.5 ± 59.0 pg/mL. For the same compound, the “IL-5” value in the data set with IL-5 turned out to be 157.8 ± 41.3 pg/mL. In addition, the “IL-13” value in the data set with IL-13 was 130.1 ± 16.8 pg/mL.

As a reminder, the IC50 is the concentration needed to halve the response being measured. For orientation: inhibition means the drop in the measured response relative to a control, in per cent.
